# Columns and labels:
# [1] = tested on: rabbit's heart; assay: Coronaro-dilatory activity on the isolated rabbit heart (technique derived from Langendorff)
# Experimental: In this technique, the survival liquid perfusing the heart contains 0.5 I.U./l post-hypophysis intended for permanently maintaining a slight vaso-constriction of the coronary vascular system. The products to be studied are administered in the region of the aortic canal in a volume of 1 cm^3 over a period of 1 minute. The results are expressed as a percentage variation of the coronary output after the injection of the product with respect to the initial output, the output being measured by integration of the frequency of drops of survival liquid escaping from the heart after having passed through the coronary system.
# [2] = Acute toxicity in the mouse (LD50); conditions: in vivo, male CD1 mouse, 3 days observation
# Experimental: Acute toxicities of the compounds according to the invention have been determined in the male mouse CD1 (Charles RIVER) both intravenously and orally. The LD50 were calculated after observation for 3 days by the method of REED, JJ. and MUENCH, H. (Am. J. Hy, 27 493, 1938).
# [3] = tested on: removed duodenum of the rat, contractions caused by acetylcholine; assay: Spasmolytic activity on the detached duodenum of the rat, neurotrope (versus acetylcholine; Magnus)
# Text: (§1) The spasmolytic neurotropes inhibit the contractions of the organ caused by acetylcholine,whereas the musculotropes prevent the spasms induced by barium chloride. The following table summarises the results expressed as a 50% effective concentration (EC50) in mg/l.
# [4] = tested on: tachycardia induced by isoproterenol; assay: Beta-sympatholytic activity: antagonism of isoproterenol-induced tachycardia in the non-anesthetized rabbit; type: in vivo; conditions: for Maximum Inhibition of tachycardia (as a %): isoproterenol 0.010 mg/kg i.v.
# Experimental: The technique consists of evaluating the antagonism exerted by the products with regard to induced tachycardia, in an alert rabbit, by a sympatho-stimulant agent, isoproterenol, administered in a dose of 0.010 mg/kg intravenously. The animal is placed in a restraining box and the marginal vein of the ear is catheterized. The animal's electrocardiogram is picked up by two electrodes implanted in shunt DII and connected to a telemetric transmitter. A polygraph, coupled to a receiver, simultaneously records the electrocardiogram and the cardiac rhythm by integration of the waves R.
# First of all, one makes certain of the stability and reproducibility of isoprenalinic tachycardia and the substance to be studied is administered. In the case of intravenous administration of the products, the injections of isoproterenol are then repeated 5 minutes later, then every 15 minutes, until the tachycardia returns to its initial intensity. When the products are administered orally, the injections of the beta-stimulant are repeated 15, 30, 45 and 60 minutes, then 2, 3, 5, 24 and 48 hours afterwards.
# The beta-sympatholytic activity is expressed by the maximum percentage decrease of the tachycardia induced by isoproterenol. The total duration of the effect is also noted.
# [5] = tested on: removed duodenum of the rat, spasms induced by barium chloride; assay: Spasmolytic activity on the detached duodenum of the rat, musculotrope (versus BaCl2; Magnus)
# Text: as §1
Compound,"LD50 at 72 h ([2]; iv, intravenously) [mg/kg]","LD50 at 72 h ([2]; po, orally) [mg/kg]",EC50 [3] [µg/mL],Duration of Inhibiting effect ([4]; intravenous dose 0.5 mg/kg),Maximum Inhibition of tachycardia (as a %) ([4]; intravenous dose 0.5 mg/kg) [%],Duration of Inhibiting effect ([4]; intravenous dose 1 mg/kg),Maximum Inhibition of tachycardia (as a %) ([4]; intravenous dose 1 mg/kg) [%],Duration of Inhibiting effect ([4]; oral dose 17.5 mg/kg),Maximum Inhibition of tachycardia (as a %) ([4]; oral dose 17.5 mg/kg) [%],Duration of Inhibiting effect ([4]; oral dose 35 mg/kg),Maximum Inhibition of tachycardia (as a %) ([4]; oral dose 35 mg/kg) [%],Duration of Inhibiting effect ([4]; oral dose 75 mg/kg),Maximum Inhibition of tachycardia (as a %) ([4]; oral dose 75 mg/kg) [%],Duration of Inhibiting effect ([4]; oral dose 150 mg/kg),Maximum Inhibition of tachycardia (as a %) ([4]; oral dose 150 mg/kg) [%],EC50 [5] [µg/mL],other results
"CC(C)NCC(O)COc1ccccc1[C@@H]1C[C@H]2CC[C@@H]1C2 (relative stereo) [Example 1, 1-isopropylamino-3-[2-(2-norbornyl exo)phenoxy]propan-2-ol]",60,800,0.18,more than 2 hrs,54,more than 2 hrs,86,approx. 24 hrs,73,approx. 48 hrs,88,approx. 48 hrs,80,more than 48 hrs,82,0.15,"activation at 0.003 µg/mL ([1]; Oryctolagus cuniculus, dose 0.003 mg/l, increase (+) versus initial output, post-hypophysis 0.5 I.U./l, read-out: % Variation of coronary output): 13%; activation at 0.01 µg/mL ([1]; Oryctolagus cuniculus, dose 0.010 mg/l, increase (+) versus initial output, post-hypophysis 0.5 I.U./l, read-out: % Variation of coronary output): 57%; activation at 0.03 µg/mL ([1]; Oryctolagus cuniculus, dose 0.030 mg/l, increase (+) versus initial output, post-hypophysis 0.5 I.U./l, read-out: % Variation of coronary output): 133%; activation at 0.1 µg/mL ([1]; Oryctolagus cuniculus, dose 0.100 mg/l, increase (+) versus initial output, post-hypophysis 0.5 I.U./l, read-out: % Variation of coronary output): 225%; Duration of the effect ([1]; dose 0.003 mg/l): 3 min; Duration of the effect ([1]; dose 0.010 mg/l): 3 min; Duration of the effect ([1]; dose 0.030 mg/l): 15 min; Duration of the effect ([1]; dose 0.100 mg/l): 9 min; coronaro-dilatory effects (in words) ([1]; isolated rabbit heart): considerable coronaro-dilatory effects, whose intensity and duration clearly increase with the concentration; Duration of Inhibiting effect ([4]; intravenous dose 0.1 mg/kg): approx. 50 minutes; Maximum Inhibition of tachycardia (as a %) ([4]; intravenous dose 0.1 mg/kg): 24%; Duration of Inhibiting effect ([4]; intravenous dose 0.3 mg/kg): approx 21/2; Maximum Inhibition of tachycardia (as a %) ([4]; intravenous dose 0.3 mg/kg): 67%; Duration of Inhibiting effect ([4]; oral dose 9 mg/kg): more than 3 hrs; Maximum Inhibition of tachycardia (as a %) ([4]; oral dose 9 mg/kg): 40%"
"CC(C)NCC(O)COc1ccccc1[C@H]1C[C@H]2CC[C@@H]1C2 (relative stereo) [Example 2, 1-isopropylamino-3-[2-(2-norbornyl endo)phenoxy]propan-2-ol]",62,675,0.3,approx. 40 mins,20,approx. 4 hrs,67,approx. 24 hrs,64,approx. 48 hrs,60,approx. 48 hrs,80,approx. 48 hrs,81,0.04,

# Source: patent US4157400A, “Terpenophenoxyalkylamines and pharmaceutical compositions and uses thereof” (MAR-PHA, Societe d'Etude et d'Exploitation de Marques, priority 1976, dated 1979)
